The values that follow come from patent publication US8906602B2, “Methods for identifying candidate compounds for treating, reducing, or preventing pathogenic infections” (The General Hospital Corporation, priority 2004, dated 2014).

Experiment [1] concerns pqsA-lacZ reporter. Put plainly: pqsA-lacZ reporter induction in pqsA mutant cultures. In kind it is cell-based, Pseudomonas aeruginosa pqsA mutant. Particulars: pqsA mutant background, compounds added at onset of culture at 10 mg/L. The text has this: Activity is reported as Miller units (MU), corrected for the OD of the cultures at 600 nm.
(§1) P. aeruginosa strains include: wild type PA14 (Rahme et al., Science 268, 1899-1902, 1995); an mvfR mutant (Cao et al., Proc. Natl. Acad. Sci. USA 98, 14613 -8, 2001); 8C12, a TnphoA-insertion mutant of pqsB (Mahajan-Miklos et al., Cell 96, 47-56, 1999); and a lasR::Gm mutant, which was generated by allelic exchange using pSB219.9A as described (Beatson et al., J Bacteriol 184, 3598-604, 2002). A pqsE deletion mutant was generated via pEX18Ap allelic replacement, using sucrose selection, resulting in a 570 bp non-polar deletion covering 65% of the sequence (Hoang et al., Gene 212, 77-86, 1998). The pqsA (U479) TnphoA mutant was obtained from the PA14 Transposon Insertion Mutant Database. For complementation analysis, mvfR was cloned into pDN18 (Nunn et al., J. Bacteriol. 172, 1990). The reporter fusions phzABC-lacZ and hcnA′-lacZ have been described (Whiteley et al., J. Bacteriol. 182, 4356-60, 2000; Pessi et al., J. Bacteriol. 182, 6940-9, 2000). Plasmids were transformed into PA14 by electroporation (Smith et al., Nuc. Acid. Res. 17, 10509, 1989). Specific β-galactosidase activity was determined as reported (Miller, Cold Spring Harbor Laboratory, Cold Spring Harbor, N.Y., pp. 352-355 1972).

In experiment [2] the test system is pyocyanin production. Put plainly: Pyocyanin production in pqs or mvfR mutant cultures. In kind it is cell-based, Pseudomonas aeruginosa pqs or mvfR mutants. Particulars: addition to cultures of any pqs or mvfR mutants. How it is done:
Whereas pqsA or pqsB inactivation abolish HAQ production, a pqsE mutant produces essentially normal HAQ levels (FIG. 12), and HAQ-related antibiotic activity (FIG. 6). […] Supporting this notion, mvfR overexpression gave excessive pyocyanin accumulation (FIG. 12). […] Such compounds would not be detected by our assay, which was aimed at extracellular compounds. Loss of these compounds might underlie the reduced pathogenicity of a pqsE mutant.
Bacteria were grown in Luria-Bertani broth or on 1.5% Bacto-agar (Difco) LB plates. Freshly plated cells served as inoculum. For pyocyanin production, bacteria were grown in King's A broth (King et al., J. Lab. Clin. Med. 44, 301, 1954) and the pyocyanin quantified as OD520 after supernatant extraction (Essar et al., J. Bacteriol. 172, 884-900, 1990). Tetracycline (75 mg/L), carbenicillin (300 mg/L), kanamycin (200 mg/L), and gentamicin (100 mg/L) were included as required.

Experiment [3] relates to phzABC-lacZ reporter. Put plainly: phzABC-lacZ reporter activity after exogenous HHQ, wild-type PA14 cells. In kind it is cell-based, Pseudomonas aeruginosa PA14. The note with it: wild-type PA14, 10 mg/L HHQ added to culture medium.
Description: To determine whether HHQ is itself involved in signal gene regulation, independently from PQS activity, or whether it functions solely as a PQS precursor, we asked whether exogenous HHQ can stimulate the activity of a phzABC-lacZ reporter carried by wild-type PA14 cells, and by lasR^− mutant cells.
as §1, with “The reporter fusions phzABC-lacZ and hcnA′-lacZ have been described (Whiteley et al., J. Bacteriol. 182, 4356-60, 2000; Pessi et al., J. Bacteriol. 182, 6940-9, 2000). Plasmids were transformed into PA14 by electroporation (Smith et al., Nuc. Acid. Res. 17, 10509, 1989).” left out, “1972). […]” for “1972).”

For experiment [4], the system named is cytochrome. The note with it: Lightbown et al. 1956; cited from earlier work.
The test system of experiment [5] is Na^+-translocating NADH-quinone oxidoreductases. The note with it: Häse et al. 2001; cited from earlier work.
Experiment [6] has as its system Bacillus subtilis. Put plainly: Antimicrobial activity assay on well-plates (growth inhibition zones). It counts as cell-based. The note with it: well-plate, 60 μl of 25% methanol solution of test extract or pure HAQ, overnight 37° C.; FIG. 10. An excerpt:
Bacillus subtilis growth on well plates was scored for inhibition by culture extracts of PA14 and the mvfR, pqsA, and pqsE mutant strains (left plate), and by purified PQS, HHQ and HQNO, versus PA14 extract (right plate).
Fluorescent pseudomonads, and perhaps just P. aeruginosa, are the only microorganisms identified to produce HAQs (Budzikiewicz, FEMS Microbiol. Rev. 104, 209-228, 1993; Lépine et al., Biochim. Biophys. Acta 1622, 36-40, 2003). Although their biological functions are unknown, many HAQs were initially isolated as antibiotics (Hays et al., J. Biol. Chem. 159, 725-750, 1945; Wells, J. Biol. Chem. 196, 331-340, 1952). We assayed the antimicrobial activity of total organic extracts from PA14 and mvfR, pqsA, and pqsE mutant strains, and purified PQS, HHQ and HQNO, against the Gram-positive species Staphylococcus aureus and Bacillus subtilis. […] Thus, MvfR regulates the production of antibiotics that can function in niche competition against other bacteria. Because the pqsE mutant and PA14 produce roughly the same levels of antimicrobial activity, these antibiotic compounds are probably HAQs, instead of other non-polar compounds whose synthesis is under PQS control.
HAQ antimicrobial activity was evaluated on well-plates. […] Plates were incubated overnight at 37° C. and scored for growth inhibition zones around the test wells.

For experiment [7] the following is noted: Pesci et al. 1999; cited from earlier work.

`Nc1ccccc1C(=O)O` [AA, anthranilic acid]: the “pqsA-lacZ induction (LacZ activity)” value in experiment [1] is “does not”.
Take `CCCCCCCc1cc(O)c2ccccc2n1` [HHQ, 4-hydroxy-2-heptylquinoline]: the “induction of pyocyanin production” value in experiment [2] is on record as “failed to induce pyocyanin production”. The “β-galactosidase activity of phzABC-lacZ reporter” value in experiment [3] was “induces significant and consistent levels of β-galactosidase activity”.
For `CCCCCCCc1cc(O)c2ccccc2[n+]1[O-]` [HQNO, 4-hydroxy-2-heptylquinoline N-oxide], the cytochrome inhibition result in experiment [4] was “widely used cytochrome inhibitor”. Besides, the “inhibition of Na^+-translocating NADH-quinone oxidoreductases” value in experiment [5] is given as “inhibits”. In experiment [6], the “antimicrobial activity (growth inhibition)” value is “specific antibacterial activity”.
Turning to `CCCCCCCc1nc2ccccc2c(O)c1O` [PQS, 3,4-dihydroxy-2-heptylquinoline], the “induction of pyocyanin production” value in experiment [2] is “failed to induce pyocyanin production”. The antibiotic activity entry in experiment [7] is “no antibiotic activity”. Moreover, in experiment [1], the “pqsA-lacZ induction (LacZ activity)” value was “activates pqsA transcription”.
